Columns and labels:
[1] = organism: Homo sapiens; assay: Liver toxicity in human assessed as induction of drug-induced liver injury by measuring verified drug-induced liver injury concern status
[2] = organism: Homo sapiens; assay: Liver toxicity in human assessed as induction of drug-induced liver injury by measuring severity class index
Throughout, for DILI severity class: key of the grades not given here.

Compound | DILI_Concern [1] | DILI_severity_class [2]
CCCN[C@H]1CCc2nc(N)sc2C1 [PRAMIPEXOLE] | Ambiguous-Dili-Concern | 2
CC[C@H](C)[C@H](NC(=O)[C@@H]1CCCN1C(=O)CNC(=O)[C@H](Cc1ccccc1)NC(=O)[C@H](CC(N)=O)NC(=O)[C@H](CC(N)=O)NC(=O)[C@H](CO)NC(=O)[C@H](CO)NC(=O)[C@H](Cc1c[nH]cn1)NC(=O)[C@@H](NC(=O)[C@H](CC(C)C)NC(=O)[C@H](Cc1ccccc1)NC(=O)[C@H](CC(N)=O)NC(=O)[C@H](C)NC(=O)[C@H](CC(C)C)NC(=O)[C@H](CCCNC(=N)N)NC(=O)[C@H](CCC(N)=O)NC(=O)[C@@H](NC(=O)[C@H](C)NC(=O)[C@@H]1CSSC[C@H](NC(=O)[C@@H](N)CCCCN)C(=O)N[C@@H](CC(N)=O)C(=O)N[C@@H]([C@@H](C)O)C(=O)N[C@@H](C)C(=O)N[C@@H]([C@@H](C)O)C(=O)N1)[C@@H](C)O)C(C)C)C(=O)N[C@@H](CC(C)C)C(=O)N1CCC[C@H]1C(=O)N1CCC[C@H]1C(=O)N[C@H](C(=O)N[C@@H](CC(N)=O)C(=O)N[C@H](C(=O)NCC(=O)N[C@@H](CO)C(=O)N[C@@H](CC(N)=O)C(=O)N[C@H](C(=O)N[C@@H](Cc1ccc(O)cc1)C(N)=O)[C@@H](C)O)C(C)C)[C@@H](C)O [PRAMLINTIDE] | No-Dili-Concern | 0
CC(=O)Oc1cc2c(s1)CCN(C(C(=O)C1CC1)c1ccccc1F)C2.Cl (stereo unspecified) [PRASUGREL HYDROCHLORIDE] | Less-Dili-Concern | 0
CC[C@H](C)C(=O)O[C@H]1C[C@H](O)C=C2C=C[C@H](C)[C@H](CC[C@@H](O)C[C@@H](O)CC(=O)O)[C@H]21 [PRAVASTATIN] | Less-Dili-Concern | 3
COc1cc2nc(N3CCN(C(=O)c4ccco4)CC3)nc(N)c2cc1OC [PRAZOSIN] | Ambiguous-Dili-Concern | 3
C[C@]12C=CC(=O)C=C1CC[C@@H]1[C@@H]2[C@@H](O)C[C@@]2(C)[C@H]1CC[C@]2(O)C(=O)CO [PREDNISOLONE] | Less-Dili-Concern | 3
C[C@]12C=CC(=O)C=C1CC[C@@H]1[C@@H]2C(=O)C[C@@]2(C)[C@H]1CC[C@]2(O)C(=O)CO [PREDNISONE] | Less-Dili-Concern | 3
COc1cc(NC(C)CCCN)c2ncccc2c1 (stereo unspecified) [PRIMAQUINE] | No-Dili-Concern | 0
CCC1(c2ccccc2)C(=O)NCNC1=O [PRIMIDONE] | No-Dili-Concern | 0
CCCN(CCC)S(=O)(=O)c1ccc(C(=O)O)cc1 [PROBENECID] | Ambiguous-Dili-Concern | 6
CCN(CC)CCNC(=O)c1ccc(N)cc1 [PROCAINAMIDE] | Less-Dili-Concern | 4
CNNCc1ccc(C(=O)NC(C)C)cc1 [PROCARBAZINE] | Less-Dili-Concern | 3
CN1CCN(CCCN2c3ccccc3Sc3ccc(Cl)cc32)CC1 [PROCHLORPERAZINE] | Less-Dili-Concern | 2
OC(CCN1CCCC1)(c1ccccc1)C1CCCCC1 (stereo unspecified) [PROCYCLIDINE] | No-Dili-Concern | 0
CC(=O)[C@H]1CC[C@H]2[C@@H]3CCC4=CC(=O)CC[C@]4(C)[C@H]3CC[C@]12C [PROGESTERONE] | Less-Dili-Concern | 2
CC(CN1c2ccccc2Sc2ccccc21)N(C)C (stereo unspecified) [PROMETHAZINE] | Less-Dili-Concern | 5
CCCNCC(O)COc1ccccc1C(=O)CCc1ccccc1 (stereo unspecified) [PROPAFENONE] | Less-Dili-Concern | 3
CC(C)[N+](C)(CCOC(=O)C1c2ccccc2Oc2ccccc21)C(C)C [PROPANTHELINE] | No-Dili-Concern | 0
CC(C)c1cccc(C(C)C)c1O [PROPOFOL] | Less-Dili-Concern | 3
CCC(=O)O[C@](Cc1ccccc1)(c1ccccc1)[C@H](C)CN(C)C [PROPOXYPHENE] | Less-Dili-Concern | 3
CC(C)NCC(O)COc1cccc2ccccc12 (stereo unspecified) [PROPRANOLOL] | Ambiguous-Dili-Concern | 3
CCCc1cc(=O)[nH]c(=S)[nH]1 [PROPYLTHIOURACIL] | Most-Dili-Concern | 8
NC(=O)[C@@H]1CCCN1C(=O)[C@H](Cc1cnc[nH]1)NC(=O)[C@@H]1CCC(=O)N1 [PROTIRELIN] | No-Dili-Concern | 0
CNCCCC1c2ccccc2C=Cc2ccccc21 [PROTRIPTYLINE] | No-Dili-Concern | 0
CN[C@@H](C)[C@@H](O)c1ccccc1 [PSEUDOEPHEDRINE] | No-Dili-Concern | 0
NC(=O)c1cnccn1 [PYRAZINAMIDE] | Less-Dili-Concern | 3
CN(C)C(=O)Oc1ccc[n+](C)c1 [PYRIDOSTIGMINE] | No-Dili-Concern | 0

Compound | DILI_Concern [1] | DILI_severity_class [2]
Cc1ncc(CO)c(CO)c1O [PYRIDOXINE] | No-Dili-Concern | 0
CCc1nc(N)nc(N)c1-c1ccc(Cl)cc1 [PYRIMETHAMINE] | Less-Dili-Concern | 3
Fc1ccccc1C1=NCC(=S)N(CC(F)(F)F)c2ccc(Cl)cc21 [QUAZEPAM] | No-Dili-Concern | 0
OCCOCCN1CCN(C2=Nc3ccccc3Sc3ccccc32)CC1 [QUETIAPINE] | Less-Dili-Concern | 3
C=C[C@H]1C[N@@]2CC[C@H]1C[C@@H]2[C@@H](O)c1ccnc2ccc(OC)cc12 [QUINIDINE] | Less-Dili-Concern | 3
C=C[C@H]1C[N@@]2CC[C@H]1C[C@H]2[C@H](O)c1ccnc2ccc(OC)cc12 [QUININE] | Less-Dili-Concern | 3
COCCCOc1ccnc(C[S+]([O-])c2nc3ccccc3[nH]2)c1C (stereo unspecified) [RABEPRAZOLE] | Less-Dili-Concern | 3
O=C(c1ccc(OCCN2CCCCC2)cc1)c1c(-c2ccc(O)cc2)sc2cc(O)ccc12 [RALOXIFENE] | No-Dili-Concern | 0
CCC(=O)NCC[C@@H]1CCc2ccc3c(c21)CCO3 [RAMELTEON] | No-Dili-Concern | 0
CNC(=C[N+](=O)[O-])NCCSCc1ccc(CN(C)C)o1 [RANITIDINE] | Less-Dili-Concern | 5
COc1ccccc1OCC(O)CN1CCN(CC(=O)Nc2c(C)cccc2C)CC1 (stereo unspecified) [RANOLAZINE] | No-Dili-Concern | 0
C#CCN[C@@H]1CCc2ccccc21 [RASAGILINE] | Ambiguous-Dili-Concern | 3
CNC(=O)c1cnn(-c2nc(N)c3ncn([C@@H]4O[C@H](CO)[C@@H](O)[C@H]4O)c3n2)c1 [REGADENOSON ANHYDROUS] | No-Dili-Concern | 0
CCOc1cc(CC(=O)N[C@@H](CC(C)C)c2ccccc2N2CCCCC2)ccc1C(=O)O [REPAGLINIDE] | Less-Dili-Concern | 5
COC(=O)[C@H]1[C@H]2C[C@@H]3c4[nH]c5cc(OC)ccc5c4CCN3C[C@H]2C[C@@H](OC(=O)c2cc(OC)c(OC)c(OC)c2)[C@@H]1OC [RESERPINE] | No-Dili-Concern | 0
CC1=C(/C=C/C(C)=C/C=C/C(C)=C/CO)C(C)(C)CCC1 [RETINOL] | Less-Dili-Concern | 3
NC(=O)c1ncn([C@@H]2O[C@H](CO)[C@@H](O)[C@H]2O)n1 [RIBAVIRIN] | Ambiguous-Dili-Concern | 7
Cc1cc2nc3c(=O)[nH]c(=O)nc-3n(C[C@H](O)[C@H](O)[C@H](O)CO)c2cc1C [RIBOFLAVIN] | No-Dili-Concern | 0
CO[C@H]1/C=C/O[C@@]2(C)Oc3c(C)c(O)c4c(c3C2=O)C2=NC3(CCN(CC(C)C)CC3)NC2=C(NC(=O)/C(C)=C\C=C\[C@H](C)[C@H](O)[C@@H](C)[C@@H](O)[C@@H](C)[C@H](OC(C)=O)[C@@H]1C)C4=O [RIFABUTIN] | Less-Dili-Concern | 5
CO[C@H]1/C=C/O[C@@]2(C)Oc3c(C)c(O)c4c(O)c(c(/C=N/N5CCN(C)CC5)c(O)c4c3C2=O)NC(=O)/C(C)=C\C=C\[C@H](C)[C@H](O)[C@@H](C)[C@@H](O)[C@@H](C)[C@H](OC(C)=O)[C@@H]1C [RIFAMPIN] | Most-Dili-Concern | 8
CO[C@H]1/C=C/O[C@@]2(C)Oc3c(C)c(O)c4c(O)c(c(/C=N/N5CCN(C6CCCC6)CC5)c(O)c4c3C2=O)NC(=O)/C(C)=C\C=C\[C@H](C)[C@H](O)[C@@H](C)[C@@H](O)[C@@H](C)[C@H](OC(C)=O)[C@@H]1C [RIFAPENTINE] | Ambiguous-Dili-Concern | 4
CO[C@H]1/C=C/O[C@@]2(C)Oc3c(C)c(O)c4c(O)c(c5c(nc6cc(C)ccn65)c4c3C2=O)NC(=O)/C(C)=C\C=C\[C@H](C)[C@H](O)[C@@H](C)[C@@H](O)[C@@H](C)[C@H](OC(C)=O)[C@@H]1C [RIFAXIMIN] | Ambiguous-Dili-Concern | 7
Nc1nc2ccc(OC(F)(F)F)cc2s1 [RILUZOLE] | Most-Dili-Concern | 8
CC(N)C12CC3CC(CC(C3)C1)C2 (stereo unspecified) [RIMANTADINE] | No-Dili-Concern | 0
O=P(O)(O)C(O)(Cc1cccnc1)P(=O)(O)O [RISEDRONIC ACID] | Ambiguous-Dili-Concern | 3
Cc1nc2n(c(=O)c1CCN1CCC(c3noc4cc(F)ccc34)CC1)CCCC2 [RISPERIDONE] | Less-Dili-Concern | 3

Source: ChEMBL document CHEMBL4028802, “DILIrank: the largest reference drug list ranked by the risk for developing drug-induced liver injury in humans” (Drug Discov Today, 2016)
